# “Also recorded” adds a separate entry of the source.
# Key:
# Assay type in all cases: in vivo
# [1] = Acute oral toxicity, Federal Hazardous Substances Act 16 CFR 1500.3(c)(2)(i)
# Method: (§1) A cleaning composition composed of pure IBIB was tested for toxicity, skin irritation and eye irritation according to the protocol of the Federal Hazardous Substances Act, 16 CFR 1500.3(c)(2)(i), 1500.41 and 1500.42.
# [2] = Skin irritation, 16 CFR 1500.41 and 1500.3(c)(4)
# Method: as §1
# [3] = Eye irritation, 16 CFR 1500.42 and 1500.3(c)(4)
# Method: as §1
compound,measurement,setting,value
"CC(C)COC(=O)C(C)C [IBIB, Isobutyl isobutyrate]",Acute oral toxicity conclusion,[1]; 16 CFR 1500.3(c)(2)(i),non-toxic; also recorded: Not considered as toxic
same,Acute Oral LD50,"[1]; dose level 5,000 mg/kg",Acute Oral LD50 greater than five (5) grams per gram body weight
same,Skin irritation conclusion,[2]; 16 CFR 1500.41,not considered to be a primary skin irritant
same,Primary Dermal Irritation Score (Average),[2]; in vivo,2.4
same,Eye irritation conclusion,[3]; 16 CFR 1500.42,not considered to be a primary eye irritant
same,Maximum Mean Total Score (Average),[3]; eye irritation,3.3

# From patent US6797077B2, “Latex paint remover” (Pentagonal Holdings, Inc., priority 2000, dated 2004)
